Assay results as given in paper PMC12011786, “Pharmacokinetics and stability of methoxyflavones from Kaempferia parviflora in Thai native roosters” (Frontiers in Veterinary Science, 2025).
Like-named read-outs stand apart in the source and are kept apart here.

Assay: Pharmacokinetics of methoxyflavones after single oral administration of KP ethanolic extract in roosters
Type: in vivo, Thai native roosters (Pradu Hang Dum breed)
Settings: for AUC / Cmax / Tmax / half-life / k el: male, Thai native Pradu Hang Dum, whole blood; for AUC: po; for Cmax / Tmax / half-life / Cl / Vd: n = 9; for k el: n = 9, read-out: Ke (converted)
Experimental: Twenty-seven male Thai native Pradu Hang Dum breed roosters were selected for this study. The sample size was calculated by using the G*power program with the following parameters: α = 0.05, power of test = 0.8, standard deviation = 0.05, and effect size = 0.6. The sample size was nine in each group. […] All animals were obtained from the Research and Development Network Center of Animal Breeding and Omics at Khon Kaen University, Thailand. The roosters were housed in separate cages (60 × 45 × 45 cm) within an open-house system. They were fed a daily commercial diet of 130 g, containing 16% crude protein. Water was provided ad libitum throughout the study.
Blood samples (1 mL) were collected from the brachial vein of each rooster after gentle restraint. The collected blood was immediately transferred into a 1.5 mL microtube containing 10% heparin and gently inverted several times to ensure thorough mixing and prevent clot formation.
The roosters were randomly divided into three groups (n = 9 per group) and orally administered KP extract at different doses: 100, 150, and 200 mg/kg of body weight. The KP extract was prepared by dissolving in a solution of 28% propylene glycol, 35% polyethylene glycol 400, 2% ethanol, and deionized water (added until the total volume was 100%). For the method of animal administration, two individuals administered the KP extract to the chickens. One person restrained each chicken by holding its wings and legs, while the other administered the extract orally via a 10 mL syringe, according to body weight.
After oral administration, blood samples were collected at certain time intervals (0.5, 1, 2, 4, 6, and 12 h). The samples were then stored at −20°C until further analysis.
To extract methoxyflavones from the blood samples, all samples were extracted by liquid–liquid extraction two times using acetonitrile. Each sample was vortexed for 2 min and sonicated for 5 min with 1 mL of acetonitrile. After centrifugation at 2,000 × g for 2 min, the supernatant was transferred to clean microtubes, evaporated to dryness, and reconstituted with 200 μL of methanol. The samples were then filtered through 0.45-μm syringe filters and analyzed using an HPLC assay. Pharmacokinetic parameters were determined using the PKSolver add-in program ([21]).

[1] = 100 mg/kg, single oral KP extract 100 mg/kg, blood, n = 9, read-out: AUC
[2] = 150 mg/kg, single oral KP extract 150 mg/kg, blood, n = 9, read-out: AUC
[3] = 200 mg/kg, range over oral KP extract doses 100, 150, 200 mg/kg, read-out: area under the curve (AUC)
[4] = 200 mg/kg, single oral KP extract 200 mg/kg, blood, n = 9, read-out: AUC
[5] = single oral KP extract 100 mg/kg, blood
[6] = single oral KP extract 150 mg/kg, blood
[7] = single oral KP extract 200 mg/kg, blood

Row | SMILES | AUC [1] | AUC [2] | AUC [3] | AUC [4] | Cmax [5] | Tmax [5] | half-life [5] | k el [5] | Cmax [6] | Tmax [6] | half-life [6] | k el [6] | Cmax [7] | Tmax [7] | half-life [7] | k el [7] | Cl [5] | Vd [5] | Cl [6] | Vd [6] | also measured
1 | COc1cc(OC)c2c(=O)cc(-c3ccccc3)oc2c1 [DMF, 5,7-dimethoxyflavone] | 1020 ± 230 ng·h/mL | 1450 ± 170 ng·h/mL | 1020 to 1680 ng·h/mL | 1680 ± 570 ng·h/mL | 340 ± 100 ng/mL | 1.17 ± 0.37 h | 2.56 ± 0.49 h | 7.78e-05 s⁻¹ | 500 ± 50 ng/mL | 1.33 ± 0.49 h | 2.57 ± 0.2 h | 8.33e-05 s⁻¹ | 540 ± 80 ng/mL | 1.17 ± 0.37 h | 2.6 ± 0.28 h | 9.17e-05 s⁻¹ | 137 ± 29.7 mL/min/kg | 18.9 ± 1.78 L/kg | 120 ± 27.7 mL/min/kg | 19.1 ± 1.78 L/kg | Cl [7]: 123 ± 36.8 mL/min/kg; Vd [7]: 19.5 ± 2.28 L/kg
2 | COc1cc(OC)c2c(=O)c(OC)c(-c3ccc(OC)c(OC)c3)oc2c1 [PMF, 3,5,7,3′,4′-pentamethoxyflavone] | 2620 ± 340 ng·h/mL | 3010 ± 420 ng·h/mL | 2620 to 3060 ng·h/mL | 3060 ± 570 ng·h/mL | 640 ± 60 ng/mL | 1.83 ± 0.37 h | 2.03 ± 0.34 h | 9.72e-05 s⁻¹ | 810 ± 120 ng/mL | 1.8 ± 0.4 h | 2.24 ± 0.71 h | 0.000111 s⁻¹ | 830 ± 110 ng/mL | 1.83 ± 0.37 h | 2.27 ± 0.93 h | 0.000114 s⁻¹ | 41 ± 7 mL/min/kg | 7.78 ± 0.63 L/kg | 47.2 ± 12.7 mL/min/kg | 8.24 ± 1.14 L/kg | Cl [7]: 53.7 ± 8.67 mL/min/kg; Vd [7]: 8.69 ± 1.25 L/kg
3 | COc1ccc(-c2cc(=O)c3c(OC)cc(OC)cc3o2)cc1 [TMF, 5,7,4′-trimethoxyflavone] | 1200 ± 150 ng·h/mL | 1360 ± 150 ng·h/mL | 1200 to 1450 ng·h/mL | 1450 ± 120 ng·h/mL | 380 ± 90 ng/mL | 1.25 ± 0.56 h | 2.15 ± 0.71 h | 8.33e-05 s⁻¹ | 530 ± 60 ng/mL | 1.25 ± 0.4 h | 2.01 ± 0.31 h | 9.44e-05 s⁻¹ | 590 ± 60 ng/mL | 1.33 ± 0.47 h | 2.03 ± 0.37 h | 0.000103 s⁻¹ | 76.3 ± 9.83 mL/min/kg | 17.8 ± 5.61 L/kg | 97.3 ± 11.2 mL/min/kg | 20 ± 3.32 L/kg | Cl [7]: 82.5 ± 26.3 mL/min/kg; Vd [7]: 12.7 ± 1.73 L/kg
